Test results from US6706740B2, “Fungicidal heterocyclic aromatic amides and their compositions, methods of use and preparation” (Dow AgroSciences LLC, priority 1999, dated 2004).
Where two headings read alike, the source gives them in different places.

Legend:
[1] = system: Mycosphaerella graminicola (Septoria tritici—SEPTTR); experiment: In vitro fungal growth inhibition, Mycosphaerella graminicola (SEPTTR); format: cell-based; settings: Zymoseptoria tritici, read-out: SEPTTR in vitro Growth Inhibition
[2] = system: Magnaporthe grisea (Pyricularia oryzae—PYRIOR); experiment: microbe, parasite or virus in culture; format: cell-based; settings: Pyricularia oryzae, read-out: PYRIOR in vitro Growth Inhibition
[3] = system: Phytophthora infestans (PHYTIN); experiment: microbe, parasite or virus in culture; format: cell-based; settings: Phytophthora infestans, read-out: PHYTIN in vitro Growth Inhibition
[4] = system: Leptosphaeria nodorum—LEPTNO; experiment: Glume Blotch of Wheat, in vivo whole plant, 24 Hour Protectant; settings: Leptosphaeria, read-out: LEPTNO in vivo 1 Day Protectant
Ustilago maydis (USTIMA) = experiment: microbe, parasite or virus in culture; format: cell-based; settings: Mycosarcoma maydis, read-out: USTIMA in vitro Growth Inhibition
Septoria tritici—SEPTTR = experiment: Leaf Blotch of Wheat, in vivo whole plant, 24 Hour Protectant; settings: Zymoseptoria tritici, 24 h, read-out: SEPTTR in vivo 1 Day Protectant
[5] = system: Stagonospora nodorum (Leptosphaeria nodorum—LEPTNO); experiment: In vitro fungal growth inhibition, Stagonospora nodorum (LEPTNO); format: cell-based; settings: Leptosphaeria, read-out: LEPTNO in vitro Growth Inhibition
[6] = system: Phytophthora infestans—PHYTIN; experiment: whole plant or invertebrate; format: in vivo; settings: Phytophthora, in Solanum lycopersicum, 24 h, read-out: PHYTIN in vivo 1 Day Protectant
[7] = system: Puccinia recondita—PUCCRT; experiment: Brown Rust of Wheat, in vivo whole plant, 24 Hour Protectant; settings: Puccinia, read-out: PUCCRT in vivo 1 Day Protectant
[8] = system: Rhizoctonia solani (RHIZSO); experiment: microbe, parasite or virus in culture; format: cell-based; settings: Rhizoctonia solani, read-out: RHIZSO in vitro Growth Inhibition
Erysiphe graminis—ERYSGT = experiment: Powdery Mildew of Wheat, in vivo whole plant, 24 Hour Protectant; settings: Erysiphe, read-out: ERYSGT in vivo 1 Day Protectant
[9] = wheat plants sprayed at 100 ppm, inoculated after 24 hours, control of fungal infection vs untreated plants
[10] = 100 ppm spray, wheat, 24 hour protectant, control of fungal infection vs untreated plants
[11] = 100 ppm spray, wheat, 24 hour protectant, % control of fungal infection vs untreated plants
[12] = 100 ppm spray, 24 hour protectant, wheat, control of fungal infection vs untreated plants

Row | Compound | inhibition at 25 ppm ([1]; 25 ppm in the growth medium) | inhibition at 25 ppm [2] | inhibition at 25 ppm [3] | pest or weed control at 100 ppm [4, 9] | inhibition at 25 ppm (Ustilago maydis (USTIMA)) | pest or weed control at 100 ppm (Septoria tritici—SEPTTR; [9]) | inhibition at 25 ppm ([5]; 25 ppm in the growth medium) | pest or weed control at 100 ppm [6] | melting point | pest or weed control at 100 ppm [7, 9] | inhibition at 25 ppm [8] | pest or weed control at 100 ppm (Erysiphe graminis—ERYSGT; [9]) | inhibition at 25 ppm ([1]; 25 ppm in growth medium) | inhibition at 25 ppm ([5]; 25 ppm in growth medium) | also measured
1 | Cc1cc(C)c(C(=O)NC2CC(C)(C)CC(C)(C)C2)c(O)n1 [Compound 528] | < 80% | < 80% | < 80% | < 25% | < 80% | 25 to 74% | < 80% | < 25% | 286 to 288 °C | < 25% | < 80% | < 25% | – | – | –
2 | COc1ccnc(C(=O)Nc2ccc(NC(=O)c3cccc(C(F)(F)F)c3)cc2)c1O [Compound 453] | – | < 80% | < 80% | – | < 80% | – | – | < 25% | 240 to 242 °C | – | < 80% | – | < 80% | < 80% | pest or weed control at 100 ppm [4, 10]: 25 to 74%; pest or weed control at 100 ppm (Septoria tritici—SEPTTR; [10]): 25 to 74%; pest or weed control at 100 ppm [7, 10]: < 25%; pest or weed control at 100 ppm (Erysiphe graminis—ERYSGT; [10]): < 25%
3 | COCCC(=O)Oc1c(OC)ccnc1C(=O)Nc1ccc(C(=O)Nc2cccc(C(F)(F)F)c2)cc1 [Compound 713] | – | < 80% | < 80% | – | < 80% | – | – | < 25% | 164 to 167 °C | – | < 80% | – | < 80% | < 80% | pest or weed control at 100 ppm [4, 11]: 25 to 74%; pest or weed control at 100 ppm (Septoria tritici—SEPTTR; [11]): < 25%; pest or weed control at 100 ppm [7, 11]: < 25%; pest or weed control at 100 ppm (Erysiphe graminis—ERYSGT; [11]): < 25%
4 | COc1ccnc(C(=O)Nc2cccc(C(=O)Nc3ccc(C(F)(F)F)cc3)c2)c1O [Compound 450] | – | < 80% | < 80% | – | < 80% | – | – | < 25% | > 260 °C | – | < 80% | – | < 80% | < 80% | pest or weed control at 100 ppm [4, 10]: 25 to 74%; pest or weed control at 100 ppm (Septoria tritici—SEPTTR; [10]): 25 to 74%; pest or weed control at 100 ppm [7, 10]: < 25%; pest or weed control at 100 ppm (Erysiphe graminis—ERYSGT; [10]): < 25%
5 | CC1(C)CC(NC(=O)c2cncnc2O)CC(C)(C)C1 [Compound 539] | > 80% | < 80% | < 80% | 25 to 74% | < 80% | 25 to 74% | < 80% | < 25% | 263 to 265 °C | 25 to 74% | < 80% | < 25% | – | – | –
6 | O=C(NCc1ccc(Cl)cc1)c1ncccc1O [Compound 220] | – | > 80% | > 80% | – | > 80% | – | – | 25 to 74% | 95 to 97 °C | – | > 80% | – | > 80% | > 80% | pest or weed control at 100 ppm [4, 12]: < 25%; pest or weed control at 100 ppm (Septoria tritici—SEPTTR; [12]): < 25%; pest or weed control at 100 ppm [7, 12]: < 25%; pest or weed control at 100 ppm (Erysiphe graminis—ERYSGT; [12]): < 25%
7 | COc1ccnc(C(=O)Nc2ccc(Oc3ccc(C(F)(F)F)cn3)cc2)c1O [Compound 462] | > 80% | > 80% | < 80% | 25 to 74% | < 80% | 25 to 74% | < 80% | < 25% | 141 to 143 °C | 25 to 74% | < 80% | < 25% | – | – | –
8 | O=C(NCc1cccc(Cl)c1)c1ncccc1O [Compound 219] | – | > 80% | > 80% | – | > 80% | – | – | < 25% | 65 to 67 °C | – | > 80% | – | > 80% | > 80% | pest or weed control at 100 ppm [4, 12]: < 25%; pest or weed control at 100 ppm (Septoria tritici—SEPTTR; [12]): < 25%; pest or weed control at 100 ppm [7, 12]: < 25%; pest or weed control at 100 ppm (Erysiphe graminis—ERYSGT; [12]): < 25%
